Reference: patent publication US12053452B2 (priority 2021, dated 2024)
Where two headings read alike, the source gives them in different places.

Tests used:
C57 mice [1] = assay: Social novelty preference test, C57; format: in vivo
Description: (§1) This assay was conducted in adult male C57 and BTBR mice (n=6 per group) in a dedicated conditioning room where ambient light, sound, and human contact were tightly controlled. Social preference chambers consist of two polycarbonate boxes (13.5 cm wide×22.5 cm tall×31.0 cm deep), floored with rough-textured black ABS plastic, and connected to one another by a 1.25″ PVC T-junction. An infrared photobeam emitter/detector array is mounted at each intersection of the T-junction and each preference compartment, and as a mouse traversed the apparatus, it would break the photobeam upon entry to or exit from each preference compartment. Beam breaks started or stopped a counter on an interfaced computer, allowing automated collection of time spent in each compartment. At the end of each test, data were reported as time (in seconds) spent in each compartment, the number of entries into each compartment, and the average time spent in each compartment following an entry. Social preference tests were conducted in an iterative manner, with each test subject completing four distinct phases as described below. Between testing sessions, chambers were sanitized by wiping the insides with a disinfectant product provided by the UAMS Department of Laboratory Animal Medicine. At the end of the week (upon completion of all phases of the procedure), each apparatus was disassembled and all parts were sanitized. No food or water were available during social preference sessions, but were available in the home cage immediately afterwards.
A single social novelty preference session occurred the day after the sociability test, where one compartment contained a wire mesh cup with the same NIH Swiss mouse from the previous day inside (referred to now as the “familiar” mouse) while the other compartment contained a new male NIH Swiss stranger mouse inside the cup which previously contained the dummy mouse during the sociability test. […] The position of the now familiar NIH Swiss mouse (left or right compartment) remained the same for each subject as during the sociability test the day before, thereby counterbalancing the position of the new NIH Swiss stranger mouse across subjects. As before, the new NIH Swiss stranger mice were housed separately from the experimental subjects (C57 and BTBR mice) in the colony facility, and the first time the experimental subjects ever encountered them was when they entered the compartment where they were contained. During this session, mice were weighed, administered the same injection as the day before, and returned to their home cage for a 30 min pretreatment period. Mice were then introduced into the T-junction and allowed to explore both preference compartments for 15 minutes. Social novelty tests always occurred on Thursdays or Fridays to prevent any weekend testing.

C57 mice [2] = assay: Radiotelemetry of core temperature, C57; format: in vivo
Description: (§2) The radiotelemetry assay was conducted in adult male C57 and BTBR mice (n=6 per group) in a dedicated testing room where ambient light, sound, and human contact were tightly controlled.
(§3) Prior to surgical implantation of radiotelemetry probes, mice received 3 mg/kg meloxicam (IP), and anesthesia was induced with 4% inhaled isoflurane and maintained with 1-3% isoflurane (as needed) throughout the procedure at a flow rate of 1.5 litres/minute. The abdominal area of each animal was treated with depilatory cream, then sanitized with 3 alternating scrubs with iodine and alcohol. A rostral-caudal cut approximately 1.5 cm in length was made with sterile skin scissors, providing access to the intraperitoneal cavity. A cylindrical glass-encapsulated radiotelemetry probe (model ER-4000 E-Mitter, Mini Mitter, Bend, OR, USA) was then inserted. These probes measure 15.5 mm×6.5 mm and weigh approximately 1 gram. Incisions were closed (skin layer and muscle layer separately) using reverse cutting 5-0 Vicryl absorbable sutures for the muscle layer and 5-0 nylon suture material for the skin layer. Surgeries were carried out at least 7 days before initiation of experimental conditions, allowing time for incisions to heal and for animals to recover normal body weights. Following surgery, all implanted mice were individually housed in Plexiglas cages within the telemetry room for the duration of all experiments. Implanted transmitters produce activity- and temperature-modulated signals which are sent to a receiver (model ER-4000 Receiver, Mini Mitter Co., Inc.) underneath each cage. Following use, telemetry probes were removed from carcasses, wiped with alcohol swabs, and stored in the disinfectant solution until re-use.
(§4) At least 7 days after surgical implantation of radiotelemetry probes, mice in their individual home cages were placed atop a telemetry energizer/receiver, which powered probes and transmitted their data to an interfaced computer. Upon initiation of an experimental session, the computer collected two data updates from the probes at 5 min intervals: core temperature (in ° C.) on one channel, and locomotor counts (in arbitrary units, depending on the relative position of the probe atop the receiver) on the other. After at least 60 minutes of baseline data collection, mice were removed from their cages, injected with saline or a given dose of a specific drug, then returned to the home cage 24 hours of data collection.
(§5) Food and water were always freely available in the home cage. Mice were injected with ascending doses of a given drug, with at least 48 hours separating doses. Because there are few studies of drug effects in BTBR mice, the first drug dose tested occasionally elicited unexpectedly large locomotor effects in these animals. In these cases, smaller drug doses were tested next, after a washout period of at least one full day.

BTBR mice [3] = assay: Social novelty preference test, BTBR (autism spectrum disorder model); format: in vivo; conditions: BTBR mice
Description: as §1
A single social novelty preference session occurred the day after the sociability test, where one compartment contained a wire mesh cup with the same NIH Swiss mouse from the previous day inside (referred to now as the “familiar” mouse) while the other compartment contained a new male NIH Swiss stranger mouse inside the cup which previously contained the dummy mouse during the sociability test. […]

BTBR mice [4] = assay: Radiotelemetry of core temperature, BTBR; format: in vivo
Description: as §2, §3, §4, §5

C57 mice [5] = conditions: mouse, in vivo; for locomotor activity: ip
BTBR mice [6] = assay: Novelty preference test, BTBR; format: in vivo; conditions: all tested doses IP
Description: as §1, with “At the end of the week (upon completion of all phases of the procedure), each apparatus was disassembled and all parts were sanitized. No food or water were available during social preference sessions, but were available in the home cage immediately afterwards.” left out

In the case of `CNC(C)Cc1ccc2c(c1)OCO2` (racemic) [racemic MDMA, 1-(1,3-benzodioxol-5-yl)-N-methylpropan-2-amine], the “social novelty preference (new stranger mouse vs familiar mouse)” value (C57 mice [1]; 3.0 mg/kg IP, 3 mg/kg) is reported as “strong preference for the stranger over the now familiar mouse”, the “social novelty preference (new stranger mouse vs familiar mouse)” value (C57 mice [1]; 3.0 mg/kg IP, listed as racemic (50/50) MDMA, 3 mg/kg) is reported as “elicit significant effects on sociability” and the “social novelty preference (new stranger mouse vs familiar mouse)” value (C57 mice [1]; various doses IP) is reported as “dose-dependent increase in time spent with the stranger mouse”. For the same compound, the “social novelty preference (new stranger mouse vs familiar mouse)” value (C57 mice [1]; various doses IP, listed as Racemic MDMA) was “bi-phasic dose-response preference for stranger mouse over familiar mouse, with maximum preference documented at 3 mg/kg dose”, the “effect on core temperature” value (C57 mice [2]; 10 mg/kg IP) was “induced a drop in core temperature” and the “rise in core temperature” value (C57 mice [2]; 56 mg/kg IP) was ~2 degrees C. The “effect on core temperature” value (C57 mice [2]; various/increasing doses IP) was “gradual increase in core temperature”, the “social novelty preference (new stranger mouse vs familiar mouse)” value (BTBR mice [3]; all doses IP) was “exhibiting preferences for the stranger mouse” and the “effect on core temperature” value (BTBR mice [4]; 30 mg/kg IP) was “results in an increase in temperature but is not as significant as S-MDMA”. For the same compound, the “rise in core temperature” value (BTBR mice [4]; 56 mg/kg IP) was ~2 degrees C, the “effect on core temperature” value (BTBR mice [4]; various/increasing doses IP) was “gradual increase in core temperature” and the “effect on core temperature” value (BTBR mice [4]; various/increasing doses IP, listed as racemic compositions of MDMA) was “dose dependent increase in temperature”. For the same compound, the “locomotor dose-effect curve (total ambulatory activity)” value (C57 mice [5]) was “classical “inverted U-shaped” dose-effect curve”, the “pattern of locomotor activity across the time course” value (C57 mice [5]) was “consistent with motor stereotypy” and the “stereotypy or hyperstimulation of mice” value (C57 mice [5]) was “stereotypy or hyperstimulation of mice is seen”. For the same compound, the locomotor activity (C57 mice [5]; 10 mg/kg) was “lesser hyperactivity is observed”, the locomotor activity (C57 mice [5]; 30 mg/kg) was “elicit more activity than the pure S(+)-MDMA” and the “novelty preference (time spent with the dummy mouse)” value (BTBR mice [6]) was “No dose of racemic MDMA (e.g comparative composition 1) or S(+)-MDMA (e.g comparative composition 3) elicited any effects on novelty preference”.

For `CN[C@@H](C)Cc1ccc2c(c1)OCO2` [S(+)-MDMA, (2S)-1-(1,3-benzodioxol-5-yl)-N-methylpropan-2-amine], the “social novelty preference (new stranger mouse vs familiar mouse)” value (C57 mice [1]; 3.0 mg/kg IP) was “not different from saline”, the “social novelty preference (new stranger mouse vs familiar mouse)” value (C57 mice [1]; 3.0 mg/kg and 5.6 mg/kg IP) was “does not elicit any substantial preference for the stranger mouse” and the “social novelty preference (new stranger mouse vs familiar mouse)” value (C57 mice [1]; various doses IP) was “no systematic effects on social novelty preference”. The “effect on core temperature” value (C57 mice [2]; 10 mg/kg IP) was “elicited an increase in temperature”, the “jump in core temperature” value (C57 mice [2]; 18 mg/kg i.p) was “greater than that observed by administration of 56 mg/kg i.p of Racemic MDMA” and the “effect on core temperature” value (C57 mice [2]; 30 mg/kg IP) was “elicits significant hyperthermia”. For the same compound, the “lethality during core temperature recording” value (C57 mice [2]; approximately 5-8 hrs after injection) was “one animal experiencing profound hypothermia before expiring”, the “effect on core temperature” value (C57 mice [2]; various/increasing doses IP) was “dose-dependent increase in temperature” and the “social novelty preference (new stranger mouse vs familiar mouse)” value (BTBR mice [3]; 3.0 mg/kg IP) was “elicited a strong preference for the stranger mouse”. For the same compound, the “effect on core temperature” value (BTBR mice [4]; 10 mg/kg IP, 10 mg/kg) was “elicited a similar increase in temperature”, the “effect on core temperature” value (BTBR mice [4]; 10 mg/kg IP, listed as S-MDMA, 10 mg/kg) was “did not differ much from that observed with Racemic MDMA” and the “jump in core temperature” value (BTBR mice [4]; 18 mg/kg i.p) was “greater than that observed by administration of 56 mg/kg i.p of Racemic MDMA”. The “effect on core temperature” value (BTBR mice [4]; 30 mg/kg IP, 30 mg/kg) was “elicited a large hyperthermic response”, the “effect on core temperature” value (BTBR mice [4]; 30 mg/kg IP, listed as S-MDMA, 30 mg/kg) was “strong hyperthermic response” and the “effect on core temperature” value (BTBR mice [4]; various/increasing doses IP) was “dose dependent increase in temperature”. For the same compound, the “effect on core temperature” value (BTBR mice [4]; various/increasing doses IP, listed as S-MDMA) was “dose-dependent increase in temperature”, the “locomotor dose-effect curve (total ambulatory activity)” value (C57 mice [5]) was “classical “inverted U-shaped” dose-effect curve” and the “stereotypy or hyperstimulation of mice” value (C57 mice [5]) was “stereotypy or hyperstimulation of mice is seen”. The locomotor activity (C57 mice [5]; 10 mg/kg) was “elicits the greatest locomotor stimulation” and the “novelty preference (time spent with the dummy mouse)” value (BTBR mice [6]) was “No dose of racemic MDMA (e.g comparative composition 1) or S(+)-MDMA (e.g comparative composition 3) elicited any effects on novelty preference”.
